Measured values reported in DBAASP.
≈ marks a conversion by molar mass, not a printed value.

Assays:
Assay in all cases: ≥ marks a high value that may be exact or a test limit, other limits are often not marked, values filed in µg/mL are converted to µM
[1] = system: Acinetobacter baumannii Ab5753
[2] = system: Acinetobacter baumannii ICB 14067
[3] = system: Acinetobacter baumannii ICB 14072
[4] = system: Acinetobacter baumannii M17
[5] = system: Enterobacter cloacae Ha089
[6] = system: Enterobacter cloacae Ha89
[7] = system: Enterococcus faecalis ATCC 29212
Escherichia coli O157:H7 = system: Escherichia coli O157:H7
[8] = system: Klebsiella pneumoniae ATCC 10031
[9] = system: Klebsiella pneumoniae ATCC 27799
Klebsiella pneumoniae = system: Klebsiella pneumoniae
[10] = system: Pseudomonas aeruginosa Pa1409
[11] = system: Pseudomonas aeruginosa Pa4216
[12] = system: Salmonella typhimurium SL1344
[13] = system: Shigella flexneri ATCC 12022
[14] = system: Staphylococcus aureus Sa1390
[15] = system: Stenotrophomonas sp. ICB 7569

- MIC [1]: ≥ 53.5 µM
- MIC [2]: 0.418 µM (≈ 1 µg/mL)
- MIC [3]: 0.418 µM (≈ 1 µg/mL)
- MIC [4]: 0.418 µM (≈ 1 µg/mL)
- MIC [5]: 0.0523 µM (≈ 0.125 µg/mL)
- MIC [6]: 0.105 µM (≈ 0.25 µg/mL)
- MIC [7]: > 512 µM
- MIC (Escherichia coli O157:H7): 1.31 µM (≈ 3.14 µg/mL)
- MIC [8]: 4 µM (≈ 9.56 µg/mL)
- MIC [9]: 0.418 µM (≈ 1 µg/mL)
- MIC (Klebsiella pneumoniae): 3.35 µM (≈ 8 µg/mL)
- MIC [10]: ≥ 53.5 µM
- MIC [11]: ≥ 53.5 µM
- MIC [12]: 0.251 µM (≈ 0.6 µg/mL)
- MIC [13]: 16 µM (≈ 38.2 µg/mL)
- MIC [14]: ≥ 53.5 µM
- MIC [15]: 3.35 µM (≈ 8 µg/mL)
Compound: CC[C@H](C)[C@H](NC(=O)[C@H](CCCN=C(N)N)NC(=O)[C@H](CCCN=C(N)N)NC(=O)[C@@H]1CCCN1C(=O)[C@@H]1CCCN1C(=O)[C@H](CCCN=C(N)N)NC(=O)[C@@H]1CCCN1C(=O)[C@H](CCCN=C(N)N)NC(=O)[C@@H]1CCCN1C(=O)[C@H](CC(C)C)NC(=O)[C@H](Cc1ccc(O)cc1)NC(=O)[C@@H]1CCCN1C(=O)[C@@H]1CCCN1C(=O)[C@H](CCCCN)NC(=O)[C@H](CC(=O)O)NC(=O)[C@@H](N)C(C)C)C(=O)N[C@@H](Cc1ccc(O)cc1)C(=O)N[C@@H](CC(N)=O)C(=O)N[C@@H](CCCN=C(N)N)C(N)=O [VDKPPYLPRPRPPRRIYNR]
